Results taken from ChEMBL document CHEMBL1201862, “PubChem BioAssay data set” (2004).
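Tested at 5 concentrations; 48 h exposure; 96-well plates; endpoints linearly interpolated, else capped at highest concentration. Here, GI50 denotes the concentration required for 50% inhibition of growth.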 Activity calls are given as the source filed them. Cut-off read from the data, not from the text of the source: active = GI50 up to about 1.1 µM and inactive = higher.

Tests used:
Assay in all cases: NCI-60 cell line screen, 48 h
NCI-H23 = test system: NCI-H23
HT-29 = test system: HT-29
NCI-H226 = test system: NCI-H226
COLO 205 = test system: COLO 205
HL-60 = test system: HL-60
KM-20L2 = test system: KM-20L2
SF-539 = test system: SF-539
OVCAR-8 = test system: OVCAR-8
UO-31 = test system: UO-31
SW-620 = test system: SW-620
Malme-3M = test system: Malme-3M
M14 = test system: M14
SNB-19 = test system: SNB-19
U-251 = test system: U-251
NCI-H522 = test system: NCI-H522
UACC-257 = test system: UACC-257
OVCAR-5 = test system: OVCAR-5

Measured: GI50

COC(=O)N/N=C(\c1nc2ccc(Cl)cc2nc1O)C(O)c1ccc([N+](=O)[O-])cc1 (stereo not drawn)
inactive: NCI-H23 > 100 µM | HT-29 > 100 µM | NCI-H226 > 100 µM | COLO 205 > 100 µM | HL-60 > 100 µM | KM-20L2 > 100 µM | SF-539 > 100 µM | OVCAR-8 > 100 µM | UO-31 > 100 µM | SW-620 > 100 µM | Malme-3M > 100 µM | M14 > 100 µM | SNB-19 > 100 µM | U-251 > 100 µM | NCI-H522 > 100 µM | UACC-257 > 100 µM | OVCAR-5 > 100 µM

CC(C)(C)OC(=O)C1=C(O)C(C(=O)OC(C)(C)C)C23CCCCC12C(C(=O)OC(C)(C)C)C(O)=C3C(=O)OC(C)(C)C (stereo not drawn)
inactive: NCI-H23 > 100 µM | HT-29 > 100 µM | NCI-H226 > 100 µM | COLO 205 > 100 µM | HL-60 > 100 µM | KM-20L2 > 100 µM | SF-539 > 100 µM | OVCAR-8 > 100 µM | UO-31 > 100 µM | SW-620 > 100 µM | Malme-3M > 100 µM | M14 > 100 µM | SNB-19 > 100 µM | U-251 > 100 µM | NCI-H522 > 100 µM | UACC-257 > 100 µM | OVCAR-5 > 100 µM

N#CCC(=O)N/N=C(\C(=O)Nc1ccc(Cl)c(Cl)c1)C1CN(c2ccccc2)N=C1N (stereo not drawn)
inactive: NCI-H23 > 100 µM | HT-29 > 100 µM | NCI-H226 > 100 µM | COLO 205 > 100 µM | HL-60 > 100 µM | KM-20L2 > 100 µM | SF-539 > 100 µM | OVCAR-8 > 100 µM | UO-31 > 100 µM | Malme-3M > 100 µM | M14 > 100 µM | U-251 > 100 µM | NCI-H522 > 100 µM | UACC-257 > 100 µM | OVCAR-5 > 100 µM

N#Cc1c(N)c(C(=O)O)nn(-c2cccc(C(F)(F)F)c2)c1=O
inactive: NCI-H23 > 100 µM | HT-29 > 100 µM | COLO 205 > 100 µM | HL-60 > 100 µM | KM-20L2 > 100 µM | SF-539 > 100 µM | OVCAR-8 > 100 µM | UO-31 76.7 µM | SW-620 > 100 µM | Malme-3M 60 µM | M14 > 100 µM | SNB-19 > 100 µM | U-251 > 100 µM | NCI-H522 39 µM | OVCAR-5 > 100 µM

Cc1c2c(cc3c(=O)ccn(CCN(C)C)c13)c(=O)ccn2CCN(C)C
inactive: NCI-H23 14.9 µM | NCI-H226 14 µM | COLO 205 11.5 µM | HL-60 2.24 µM | KM-20L2 5.04 µM | SF-539 15 µM | OVCAR-8 4.76 µM | UO-31 10.3 µM | SW-620 3.81 µM | Malme-3M 27.4 µM | M14 12.5 µM | SNB-19 8.34 µM | U-251 8.34 µM | NCI-H522 2.31 µM | UACC-257 18.3 µM | OVCAR-5 13.5 µM

O=C1C2=C(c3ccccc31)C(c1ccccc1Cl)NC(S)=N2 (stereo not drawn)
inactive: NCI-H23 39.4 µM | HT-29 51.9 µM | NCI-H226 8.65 µM | COLO 205 69.3 µM | HL-60 34 µM | KM-20L2 74.3 µM | SF-539 97.1 µM | OVCAR-8 53 µM | UO-31 30.6 µM | SW-620 74.5 µM | Malme-3M 39 µM | M14 51.8 µM | SNB-19 52.1 µM | U-251 77.6 µM | NCI-H522 31.8 µM | UACC-257 51.3 µM | OVCAR-5 > 100 µM

C=C1C(=O)OC2/C=C(\C=O)CC/C=C(\C)C(O)C[C@@H]12 (stereo partly drawn)
inactive: NCI-H23 5.18 µM | HT-29 3.08 µM | NCI-H226 20.4 µM | COLO 205 3.94 µM | HL-60 2.86 µM | KM-20L2 9.25 µM | SF-539 14.2 µM | OVCAR-8 3.17 µM | UO-31 13.3 µM | SW-620 2.72 µM | Malme-3M 5.07 µM | M14 3.36 µM | SNB-19 15.4 µM | U-251 18.8 µM | NCI-H522 1.54 µM | UACC-257 5.93 µM | OVCAR-5 23.6 µM

Cc1ccccc1NC(=O)C(=O)C(C#N)c1ccccc1C (stereo not drawn)
inactive: NCI-H23 > 100 µM | HT-29 > 100 µM | NCI-H226 > 100 µM | COLO 205 46.8 µM | HL-60 53.3 µM | KM-20L2 > 100 µM | SF-539 > 100 µM | OVCAR-8 > 100 µM | UO-31 > 100 µM | SW-620 19.5 µM | Malme-3M > 100 µM | M14 > 100 µM | SNB-19 > 100 µM | U-251 > 100 µM | NCI-H522 59.3 µM | UACC-257 > 100 µM | OVCAR-5 > 100 µM

Cc1cc(=O)oc2c(C)c(OCCCOc3ccc4c(C)cc(=O)oc4c3C)ccc12
inactive: NCI-H23 > 100 µM | HT-29 > 100 µM | HL-60 > 100 µM | KM-20L2 > 100 µM | SF-539 > 100 µM | OVCAR-8 > 100 µM | UO-31 > 100 µM | SW-620 > 100 µM | Malme-3M > 100 µM | M14 > 100 µM | SNB-19 > 100 µM | U-251 > 100 µM | NCI-H522 > 100 µM | UACC-257 > 100 µM | OVCAR-5 > 100 µM

C=CCn1c2c(sc1=S)C(S)NC=N2 (stereo not drawn)
inactive: NCI-H23 90.6 µM | HT-29 > 100 µM | NCI-H226 > 100 µM | COLO 205 > 100 µM | HL-60 > 100 µM | KM-20L2 > 100 µM | SF-539 85.1 µM | OVCAR-8 > 100 µM | UO-31 34.1 µM | SW-620 > 100 µM | Malme-3M 10.4 µM | M14 > 100 µM | SNB-19 99.8 µM | U-251 32.6 µM | NCI-H522 34.8 µM | UACC-257 71 µM | OVCAR-5 > 100 µM

O=C1C2C(C(=O)N1c1ccccc1)C1c3ccccc3C2C2C(=O)N(c3ccccc3)C(=O)C21 (stereo not drawn)
inactive: NCI-H23 18.5 µM | HT-29 26.6 µM | NCI-H226 28.6 µM | COLO 205 3.89 µM | HL-60 2.9 µM | KM-20L2 18.2 µM | SF-539 3.56 µM | OVCAR-8 7.08 µM | UO-31 12.7 µM | SW-620 6.12 µM | Malme-3M 3.9 µM | M14 2.85 µM | SNB-19 6.27 µM | U-251 2.82 µM | NCI-H522 2.46 µM | UACC-257 > 100 µM | OVCAR-5 15.1 µM

O=S1OC2(c3ccccc3-c3ccccc32)c2ccccc21 (stereo not drawn)
inactive: NCI-H23 > 100 µM | HT-29 > 100 µM | NCI-H226 > 100 µM | COLO 205 > 100 µM | HL-60 > 100 µM | KM-20L2 > 100 µM | SF-539 > 100 µM | OVCAR-8 > 100 µM | UO-31 > 100 µM | SW-620 > 100 µM | Malme-3M > 100 µM | M14 > 100 µM | SNB-19 > 100 µM | U-251 > 100 µM | NCI-H522 > 100 µM | UACC-257 > 100 µM | OVCAR-5 > 100 µM

CNc1ccc(/C=C2\C=Cc3ccccc32)cc1
inactive: NCI-H23 16.7 µM | HT-29 18.7 µM | NCI-H226 25.1 µM | COLO 205 18.4 µM | HL-60 4.45 µM | KM-20L2 19.1 µM | SF-539 93.3 µM | OVCAR-8 64.3 µM | UO-31 10.2 µM | SW-620 33.1 µM | M14 16.3 µM | SNB-19 61.4 µM | U-251 32.4 µM | NCI-H522 10.8 µM | UACC-257 23.4 µM | OVCAR-5 18.8 µM

FC(F)(F)C1(Br)C(c2ccccc2)=C1c1ccccc1
inactive: NCI-H23 16.6 µM | HT-29 17.9 µM | NCI-H226 17.7 µM | COLO 205 18.8 µM | HL-60 7.28 µM | KM-20L2 16.1 µM | SF-539 17.9 µM | OVCAR-8 15 µM | UO-31 18 µM | SW-620 16.5 µM | Malme-3M 15.8 µM | M14 17.1 µM | SNB-19 22.3 µM | U-251 15.6 µM | UACC-257 18.5 µM | OVCAR-5 20.9 µM

O=CC[C@H]1CCc2ccccc2C12CCC(=O)CC2
inactive: HT-29 47.9 µM | NCI-H226 51.4 µM | COLO 205 94.2 µM | HL-60 23.7 µM | KM-20L2 22.1 µM | SF-539 6.21 µM | OVCAR-8 > 100 µM | UO-31 33.7 µM | SW-620 80.2 µM | Malme-3M 74.5 µM | M14 86.3 µM | SNB-19 87.7 µM | NCI-H522 43.2 µM | UACC-257 60.8 µM | OVCAR-5 > 100 µM

NNC(=S)N/N=C(\c1nc2ccc(Cl)cc2nc1O)C(O)c1cccc([N+](=O)[O-])c1 (stereo not drawn)
inactive: NCI-H23 > 42.8 µM | HT-29 > 36.1 µM | NCI-H226 > 100 µM | COLO 205 > 42.7 µM | HL-60 > 52.2 µM | KM-20L2 > 100 µM | SF-539 > 31.8 µM | OVCAR-8 > 100 µM | UO-31 > 100 µM | SW-620 20.9 µM | Malme-3M > 100 µM | M14 > 53.5 µM | SNB-19 > 100 µM | U-251 > 100 µM | NCI-H522 > 100 µM | UACC-257 > 100 µM | OVCAR-5 > 100 µM

Clc1ccc2cccc3c2c1C1OC3c2ccccc21 (stereo not drawn)
inactive: NCI-H23 > 100 µM | HT-29 36.6 µM | NCI-H226 > 100 µM | COLO 205 > 100 µM | HL-60 > 100 µM | KM-20L2 78.9 µM | SF-539 > 100 µM | OVCAR-8 > 100 µM | UO-31 > 100 µM | SW-620 > 100 µM | Malme-3M 34.4 µM | M14 > 100 µM | SNB-19 > 100 µM | U-251 > 100 µM | NCI-H522 > 100 µM | UACC-257 > 100 µM | OVCAR-5 > 100 µM
